From US9719110B2, “Method of increasing production of amorpha-4,11-diene and method of increasing production of natural rubber” (SUMITOMO RUBBER INDUSTRIES, LTD., priority 2014, dated 2017)

Key:
[1] = tested on: 35S:ADS A. thaliana; assay: amorpha-4,11-diene production in 35S:ADS A. thaliana seedlings cultured in MS liquid medium with inhibitor (GC-MS); type: in vivo, Arabidopsis thaliana
Description: The following experiment was performed to confirm that the attachment of the enzyme inhibitor squalestatin (squalene synthase inhibitor) had the effect of increasing production of amorpha-4,11-diene on 35S:ADS A. thaliana, which is an Arabidopsis thaliana into which had been introduced a gene encoding amorphadiene synthase (ADS).
The 35S:ADS A. thaliana is Arabidopsis thaliana in which a gene encoding ADS derived from Artemisia annua is overexpressed. It is properly managed as 433 7-5 line in Cell Technology Laboratory, Division of Advanced Science and Biotechnology, Graduate School of Engineering, Osaka University.
In order to sterilize 35S:ADS A. thaliana seeds, the seeds were immersed in a seed sterilization water (0.25% sodium hypochlorite solution, 1% SDS) for 20 minutes and then washed with sterilized water four times.
The seeds were plated on MS agar medium (Murashige and Skoog medium, including 4.4 g/L vitamins, 10 g/L sucrose, and 10 g/L agar) set to a pH of 5.8.
The plating was followed by vernalization for two or more days at 4° C. Thereafter, the seeds were cultured at 23° C. under long day conditions (16 hours light/8 hours dark) for seven days.
The resulting Arabidopsis thaliana seedlings were transferred to MS liquid media supplemented with squalestatin (SQS inhibitor) at squalestatin concentrations of 0, 1, 3, 5, 10, and 15 μmol/L, followed by further culturing for seven days with shaking at 23° C. under long day conditions (16 hours light/8 hours dark).
Amorpha-4,11-diene was extracted from the Arabidopsis thaliana plants by the following procedure. About 100 mg (wet weight) of Arabidopsis thaliana plants was placed in a mortar, to which was added about 5 mL of n-hexane. After 100 μL of a n-tetradecane solution was added as an internal standard, the mixture was subjected to grinding and extraction. The extract was once recovered, and the residue was combined with another 5 mL of fresh n-hexane, followed by grinding and extraction. The extract from the second extraction was combined with that from the first extraction. This cycle of operation was repeated twice. The resulting extract was passed through an anhydrous sodium sulfate column.
The eluate from the column was concentrated under reduced pressure to about 1 mL using a rotary evaporator, and then dried to a solid with a nitrogen blowing concentrator.
The dried solid was finally combined with 1 mL of n-hexane to prepare a sample for GC-MS analysis.
The GC-MS analysis was performed with a JMS-SUN200 mass spectrometer (JEOL) and a gas chromatograph (6890 series GC system: Agilent Technologies). […]
Instead of squalene synthase (SQS), squalene epoxidase (SQE), which is located one step downstream of SQS, was inhibited, and then the effect of increasing production of amorpha-4,11-diene was evaluated. […]

[2] = tested on: Taraxacum koksaghyz; assay: natural rubber production in Taraxacum koksaghyz sprayed with inhibitor solution (rubber dry weight); type: in vivo
Description: The following experiment was performed to confirm that the attachment of the enzyme inhibitor squalestatin (squalene synthase inhibitor) to the rubber-producing plant Taraxacum koksaghyz had the effect of increasing production of natural rubber.
Taraxacum koksaghyz seeds were vernalized for two or more days at 4° C. and then planted in soil.
After planted in soil, the seeds were grown at 25° C. under 12 h light/12 h dark conditions for five months.
Squalestatin was dissolved at a concentration of 10 μmol/L in 0.1% dimethyl sulfoxide (DMSO) to prepare a squalestatin solution. Two of the thus grown Taraxacum koksaghyz plants were each sprayed with 50 mL of the squalestatin solution once a day for four days using a spray.
As a comparative example, another two Taraxacum koksaghyz individuals were sprayed with 50 mL of a 0.1% dimethyl sulfoxide (DMSO) solution without squalestatin once a day for four days using a spray.
On day 5 after initiation of the treatment, latex was recovered from the Taraxacum koksaghyz roots and immersed in ethanol for five hours to solidify natural rubber.
The solidified natural rubber was dried at room temperature for three days. Thereafter, the dry weight was measured, and the results were compared.

| Compound | amorpha-4,11-diene amount relative to treatment with the same concentration of squalestatin ([1]; 5 μmol/L) | increase in the production of amorpha-4,11-diene ([1]; terbinafine 1, 3 and 5 μmol/L, same procedure as Example 1) | accumulation of amorpha-4,11-diene ([1]; treatment with 5 μmol/L) | amount of amorpha-4,11-diene inside Arabidopsis thaliana plants ([1]; treatment with 3 μmol/L or more of squalestatin, seven-day shake culture, FIG. 2) | Rubber dry weight ([2]; 10 μmol/L in 0.1% DMSO, 50 mL sprayed once a day for four days, latex from roots on day 5, average of two individuals) | increase in amount of natural rubber recovered versus plants not treated with squalestatin ([2]; 10 μmol/L, sprayed once a day for four days) |
| --- | --- | --- | --- | --- | --- | --- |
| CN(C/C=C/C#CC(C)(C)C)Cc1cccc2ccccc12 [terbinafine] | a tenth or less | very little increase | about 0.004 μg gFW^-1 | – | – | – |
| C=C(CC[C@]12O[C@H](C(=O)O)[C@@](O)(C(=O)O)[C@](C(=O)O)(O1)[C@H](OC(=O)/C=C/[C@@H](C)C[C@@H](C)CC)[C@H]2O)[C@@H](OC(C)=O)[C@H](C)Cc1ccccc1 [squalestatin] | – | – | – | increase | 4.2 mg | 2.5 times |
